Measurements taken from US20250034167A1, “HETEROCYCLIC COMPOUNDS AND METHODS OF USE” (AMGEN INC., priority 2021, published 2025).

Each compound was assayed on Phosphorylation of ERK1/2 in AsPC-1 cells (assay: Phospho-ERK1/2 MSD Assay). Conditions: Homo sapiens, ASPC1, 2 h, read-out: 2 h p-ERK (AsPC-1 cells), IC50, AsPC-1 cells, 2 h compound treatment.
Format: cell-based
Experimental: Sixteen hours prior to compound treatment, AsPC-1 cells were seeded in 96-well cell culture plates at a density of 25,000 cells/well and incubated at 37° C., 5% CO2. A compound dose-response titration was diluted in growth media, added to appropriate wells of a cell culture plate, and then incubated at 37° C., 5% CO2 for 2 hours.
For `CCc1c(F)ccc2cc(O)cc(-c3ncc4c(N5CC[C@H](F)[C@H](O)C5)nc(OC[C@@]56CCCN5C[C@H](F)C6)nc4c3F)c12` [Example 47, (3R,4S)-1-(7-(8-Ethyl-7-fluoro-3-hydroxynaphthalen-1-yl)-8-fluoro-2-(((2R,7aS)-2-fluorotetrahydro-1H-pyrrolizin-7a(5H)-yl)methoxy)pyrido[4,3-d]pyrimidin-4-yl)-4-fluoropiperidin-3-ol], the IC50 was 222 nM. In the case of `CCc1c(F)ccc2cc(O)cc(-c3ncc4c(N5CCCC(O)(C6CC6)C5)nc(OC[C@@]56CCCN5C[C@H](F)C6)nc4c3F)c12` (stereo partly drawn) [Example 157, 3-Cyclopropyl-1-(7-(8-ethyl-7-fluoro-3-hydroxy-naphthalen-1-yl)-8-fluoro-2-(((2R,7aS)-2-fluorotetrahydro-1H-pyrrolizin-7a(5H)-yl)methoxy)pyrido[4,3-d]pyrimidin-4-yl)piperidin-3-ol], the IC50 is reported as 1240 nM. `CCc1c(F)ccc2cc(O)cc(-c3ncc4c(N5CCC[C@@H](CO)C5)nc(OC[C@@]56CCCN5C[C@H](F)C6)nc4c3F)c12` [Example 128, 5-Ethyl-6-fluoro-4-(8-fluoro-2-(((2R,7aS)-2-fluorotetrahydro-1H-pyrrolizin-7a(5H)-yl)methoxy)-4-((R)-3-(hydroxymethyl)piperidin-1-yl)pyrido[4,3-d]pyrimidin-7-yl)naphthalen-2-ol] showed an IC50 of 293 nM. Work on `CCc1c(F)ccc2cc(O)cc(-c3cc4nc(OC[C@@]56CCCN5C[C@H](F)C6)nc(N5CCC[C@@](C)(O)C5)c4cn3)c12` [Example 170, (R)-1-(7-(8-Ethyl-7-fluoro-3-hydroxynaphthalen-1-yl)-2-(((2R,7aS)-2-fluorotetrahydro-1H-pyrrolizin-7a(5H)-yl)methoxy)pyrido[4,3-d]pyrimidin-4-yl)-3-methyl-piperidin-3-ol] yielded an IC50 of 18 nM.

Same assay, conditions: Homo sapiens, ASPC1, read-out: 2 h p-ERK (AsPC-1 cells), IC50; AsPC-1 cells, 2 h compound treatment
In the case of `CCc1c(F)ccc2cc(O)cc(-c3ncc4c(N5CCC[C@@](C)(O)C5)nc(OC[C@@]56CCCN5C[C@H](F)C6)nc4c3F)c12` [Example 38, (R)-1-(7-(8-ethyl-7-fluoro-3-hydroxynaphthalen-1-yl)-8-fluoro-2-(((2R,7aS)-2-fluorotetrahydro-1H-pyrrolizin-7a(5H)-yl)methoxy)pyrido[4,3-d]pyrimidin-4-yl)-3-methyl-piperidin-3-ol], the IC50 is reported as 5 nM.

What follows are compounds tested against His-tagged KRAS G12D protein (Homo sapiens, UniProt P01116, G12D) (assay: biochemical). Conditions: not given.
Sequence of His-tagged KRAS G12D protein (P01116 1-188 isoform P01116-2 G12D): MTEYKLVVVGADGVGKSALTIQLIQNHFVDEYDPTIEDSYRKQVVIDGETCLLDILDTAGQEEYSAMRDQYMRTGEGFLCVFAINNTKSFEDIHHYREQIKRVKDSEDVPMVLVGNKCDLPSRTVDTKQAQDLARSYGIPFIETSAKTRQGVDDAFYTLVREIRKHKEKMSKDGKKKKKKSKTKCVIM
Work on `CCc1c(F)ccc2cc(O)cc(-c3ncc4c(N5CC(C(N)=O)CC(C)(C)C5)nc(OC[C@@]56CCCN5C[C@H](F)C6)nc4c3F)c12` (stereo partly drawn) [Example 43, 1-(7-(8-Ethyl-7-fluoro-3-hydroxynaphthalen-1-yl)-8-fluoro-2-(((2R,7aS)-2-fluorotetrahydro-1H-pyrrolizin-7a(5H)-yl)methoxy)pyrido[4,3-d]pyrimidin-4-yl)-5,5-dimethylpiperidine-3-carboxamide] yielded an IC50 of 4 nM. `CCc1c(F)ccc2cc(O)cc(-c3ncc4c(N5C[C@@H]6COC[C@@H]65)nc(OC[C@@]56CCCN5C[C@H](F)C6)nc4c3F)c12` [Example 20, 4-(4-((1S,5R)-3-Oxa-6-azabicyclo[3.2.0]heptan-6-yl)-8-fluoro-2-(((2R,7aS)-2-fluorotetrahydro-1H-pyrrolizin-7a(5H)-yl)methoxy)pyrido[4,3-d]pyrimidin-7-yl)-5-ethyl-6-fluoronaphthalen-2-ol] showed an IC50 of 39 nM. Compound `CCc1c(F)ccc2cc(O)cc(-c3ncc4c(N5C[C@@H](C(N)=O)CC[C@H]5C)nc(OC[C@@]56CCCN5C[C@H](F)C6)nc4c3F)c12` (relative stereo) [Example 64, rel-(3S,6R)-1-(7-(8-Ethyl-7-fluoro-3-hydroxynaphthalen-1-yl)-8-fluoro-2-(((2R,7aS)-2-fluorotetrahydro-1H-pyrrolizin-7a(5H)-yl)methoxy)pyrido[4,3-d]pyrimidin-4-yl)-6-methylpiperidine-3-carboxamide] has an IC50 of 6 nM. `C=C1CCCN(c2nc(OC[C@@]34CCCN3C[C@H](F)C4)nc3c(F)c(-c4cc(O)cc5ccc(F)c(CC)c45)ncc23)CC1` [Example 144, 5-Ethyl-6-fluoro-4-(8-fluoro-2-(((2R,7aS)-2-fluorotetrahydro-1H-pyrrolizin-7a(5H)-yl)methoxy)-4-(4-methyleneazepan-1-yl)pyrido[4,3-d]pyrimidin-7-yl)naphthalen-2-ol] showed an IC50 of 6 nM. `CCc1c(F)ccc2cc(O)cc(-c3ncc4c(N5C6CCC(C(N)=O)C5CC6)nc(OC[C@@]56CCCN5C[C@H](F)C6)nc4c3F)c12` (relative stereo) [Example 123, rac-(15,5S)-8-(7-(8-Ethyl-7-fluoro-3-hydroxynaphthalen-1-yl)-8-fluoro-2-(((2R,7aS)-2-fluorotetrahydro-1H-pyrrolizin-7a(5H)-yl)methoxy)pyrido[4,3-d]pyrimidin-4-yl)-8-azabicyclo[3.2.1]octane-2-carboxamide] gave an IC50 of 47 nM. With `CCc1c(F)ccc2cc(O)cc(-c3ncc4c(N5CCCC(S(=O)(=O)C(F)F)C5)nc(OC[C@@]56CCCN5C[C@H](F)C6)nc4c3F)c12` (stereo partly drawn) [Example 161, 4-(4-(3-((Difluoromethyl)sulfonyl)piperidin-1-yl)-8-fluoro-2-(((2R,7aS)-2-fluorotetrahydro-1H-pyrrolizin-7a(5H)-yl)methoxy)pyrido[4,3-d]pyrimidin-7-yl)-5-ethyl-6-fluoronaphthalen-2-ol] the IC50 was 76 nM. `CCc1c(F)ccc2cc(O)cc(-c3ncc4c(N5CCCC[C@@H](N)C5)nc(OC[C@@]56CCCN5C[C@H](F)C6)nc4c3F)c12` [Example 131, 4-(4-((R)-3-Aminoazepan-1-yl)-8-fluoro-2-(((2R,7aS)-2-fluorotetrahydro-1H-pyrrolizin-7a(5H)-yl)methoxy)pyrido[4,3-d]pyrimidin-7-yl)-5-ethyl-6-fluoronaphthalen-2-ol] showed an IC50 of 4 nM. With `CCc1c(F)ccc2cc(O)cc(-c3ncc4c(N5CC6CNC(=O)C6C5)nc(OC[C@@]56CCCN5C[C@H](F)C6)nc4c3F)c12` (relative stereo) [Example 61, rel-(3aR,6aS)-5-(7-(8-Ethyl-7-fluoro-3-hydroxynaphthalen-1-yl)-8-fluoro-2-(((2R,7aS)-2-fluorotetrahydro-1H-pyrrolizin-7a(5H)-yl)methoxy)pyrido[4,3-d]pyrimidin-4-yl)hexahydropyrrolo[3,4-c]pyrrol-1(2H)-one] the IC50 was 5 nM. In the case of `C#Cc1c(F)ccc2cccc(-c3ncc4c(N5CCC[C@@](C)(O)C5)nc(OC[C@@]56CCCN5C[C@H](F)C6)nc4c3F)c12` [Example 50, (R)-1-(7-(8-Ethynyl-7-fluoronaphthalen-1-yl)-8-fluoro-2-(((2R,7aS)-2-fluorotetrahydro-1H-pyrrolizin-7a(5H)-yl)methoxy)pyrido[4,3-d]pyrimidin-4-yl)-3-methylpiperidin-3-ol], the IC50 is reported as 8 nM. For `CCc1c(F)ccc2cc(O)cc(-c3ncc4c(N5CC6CCOC6C5)nc(OC[C@@]56CCCN5C[C@H](F)C6)nc4c3F)c12` (stereo partly drawn) [Example 37, 5-Ethyl-6-fluoro-4-(8-fluoro-2-(((2R,7aS)-2-fluorotetrahydro-1H-pyrrolizin-7a(5H)-yl)methoxy)-4-(hexahydro-5H-furo[2,3-c]pyrrol-5-yl)pyrido[4,3-d]pyrimidin-7-yl)naphthalen-2-ol], the IC50 was 42 nM. With `CCc1c(F)ccc2cc(O)cc(-c3ncc4c(N5CCCC(c6ccn[nH]6)C5)nc(OC[C@@]56CCCN5C[C@H](F)C6)nc4c3F)c12` (stereo partly drawn) [Example 107, 4-(4-(3-(1H-Pyrazol-5-yl)piperidin-1-yl)-8-fluoro-2-(((2R,7aS)-2-fluorotetrahydro-1H-pyrrolizin-7a(5H)-yl)methoxy)pyrido[4,3-d]pyrimidin-7-yl)-5-ethyl-6-fluoronaphthalen-2-ol] the IC50 was 8 nM. With `CCc1cccc2cc(O)cc(-c3ncc4c(N5C6CCC5C(C)(O)CC6)nc(OC[C@@]56CCCN5C[C@H](F)C6)nc4c3F)c12` (stereo partly drawn) [Example 69, 8-(7-(8-Ethyl-3-hydroxynaphthalen-1-yl)-8-fluoro-2-(((2R,7aS)-2-fluorotetrahydro-1H-pyrrolizin-7a(5H)-yl)methoxy)pyrido[4,3-d]pyrimidin-4-yl)-2-methyl-8-azabicyclo[3.2.1]octan-2-ol] the IC50 was 36 nM. With `CCc1c(F)ccc2cc(O)cc(-c3ncc4c(N5CCC[C@H](C(N)=O)C5)nc(OC[C@@]56CCCN5C[C@H](F)C6)nc4c3F)c12` [Example 90, (S)-1-(7-(8-Ethyl-7-fluoro-3-hydroxynaphthalen-1-yl)-8-fluoro-2-(((2R,7aS)-2-fluorotetrahydro-1H-pyrrolizin-7a(5H)-yl)methoxy)pyrido[4,3-d]pyrimidin-4-yl)piperidine-3-carboxamide] the IC50 was 16 nM. `CCc1c(F)ccc2cc(O)cc(-c3ncc4c(N5CCCC(NS(C)(=O)=O)C5)nc(OC[C@@]56CCCN5C[C@H](F)C6)nc4c3F)c12` (stereo partly drawn) [Example 110, N-(1-(7-(8-Ethyl-7-fluoro-3-hydroxynaphthalen-1-yl)-8-fluoro-2-(((2R,7aS)-2-fluorotetrahydro-1H-pyrrolizin-7a(5H)-yl)methoxy)pyrido[4,3-d]pyrimidin-4-yl)piperidin-3-yl)methanesulfonamide] showed an IC50 of 6 nM. In the case of `CCc1c(F)ccc2cc(O)cc(-c3ncc4c(N5CC6CC(O)C(C6)C5)nc(OC[C@@]56CCCN5C[C@H](F)C6)nc4c3F)c12` (single isomer, unassigned) [Example 26], the IC50 is reported as 4 nM. `CCc1c(F)ccc2cc(O)cc(-c3ncc4c(N5C[C@H](O)C[C@H](C(F)(F)F)C5)nc(OC[C@@]56CCCN5C[C@H](F)C6)nc4c3F)c12` [Example 154, (3R,5S)-1-(7-(8-Ethyl-7-fluoro-3-hydroxy-naphthalen-1-yl)-8-fluoro-2-(((2R,7aS)-2-fluorotetrahydro-1H-pyrrolizin-7a(5H)-yl)methoxy)pyrido[4,3-d]pyrimidin-4-yl)-5-(trifluoromethyl) piperidin-3-ol] gave an IC50 of 16 nM.
